Test results reported in patent US20240123015A1, “COMPOSITION FOR STRENGTHENING, DEVELOPING, DIFFERENTIATING, OR REGENERATING MUSCLE, OR PREVENTING, AMELIORATING, OR TREATING MUSCLE LOSS OR MUSCLE FATIGUE COMPRISING SCHIZONEPETA TENUIFOLIA EXTRACT AS EFFECTIVE COMPONENT” (KOREA INSTITUTE OF ORIENTAL MEDICINE, priority 2021, published 2024).

How the values were obtained:
[1] = system: C2C12 cells; experiment: Viability recovery of muscle cells under H2O2 oxidative stress (CCK8); assay type: cell-based, mouse; conditions: H2O2 250 μM alone; compared to control group
Protocol: Mouse myoblast cell line (i.e., C2C12 cells) was purchased from ATCC (Manassas, VA, USA) and cultured at conditions of 37° C. and 5% CO2 in DMEM medium containing 10% fetal bovine serum. Once the cultured cells reached 80% confluency, the medium was replaced with other DMEM medium (Gibco) containing 2% horse serum, 100 units/ml of penicillin, and 100 μg/ml of streptomycin to induce cell differentiation. The cells were cultured for 5 days after replacing the medium to induce cell differentiation. The culture medium was replaced with fresh medium every 2 days during the differentiation process. To induce muscular atrophy, the cells were treated with H2O2 at a final concentration of 250 μM. Concurrently, the cells were treated with Schizonepeta tenuifolia extract obtained from Example 1 at a concentration of 100 μg/ml. After treating the cells with Schizonepeta tenuifolia extract and culturing them for 24 hours, the medium was replaced with fresh medium containing 10% CCK8 (Dojindo) solution. After incubating for 2 hours, the absorbance was measured at 450 nm to evaluate cell viability. Each sample was measured three times, and the mean value was calculated.

[2] = system: BALB/c mice; experiment: Fatigue-related factors (LDH, AST, ALT) in blood serum; assay type: in vivo, mouse; conditions: dexamethasone 25 mg/kg
Protocol: The extract prepared as a dry powder was dissolved in physiological saline and used for the administration. After two weeks of oral administration of the test sample, the evaluation was made by Rotarod test and also in terms of a change in fatigue-related factors in the blood.
At the end of the 1-hour time point after the oral administration of each test material for 2 weeks, the Rotarod test was carried out, and blood samples were collected immediately from the animal heart. The collected blood was centrifuged at 3,000 rpm, 4° C. for 15 minutes to separate the blood serum, which was then stored at −70° C. until further analysis. Thereafter, concentrations of lactate dehydrogenase (LDH), aspartate aminotransferase (AST), and alanine aminotransferase (ALT) in the blood serum were measured by using a biochemical analyzer (AU480 chemistry analyzer, Beckman Coulter Inc., Brea, CA, USA).

[3] = system: BALB/c mice; experiment: Rotarod test in dexamethasone-induced animal model of fatigue; assay type: in vivo, mouse; conditions: positive control 50 mg/kg, 2 weeks, 20 rpm
Protocol: A 6-week-old male BALB/c mice was purchased from Orient Bio Inc. (Seongnam, South Korea) and used them for the test. The test animals were acclimated for one week in a breeding environment with a temperature of 25±2° C., humidity of 50±5%, and a 12-hour light-dark cycle, while being provided with ad libitum access to a standard diet (AIN-76A diet) and water. After the acclimation period, the animals were used for the test. The animal test of the present invention was carried out after obtaining an approval of Korea Institute of Oriental Medicine Institutional Animal Care and Use Committee.
The acclimated mice were randomly assigned to different groups: the normal group (Normal), the group administered with dexamethasone group (25 mg/kg), the group administered with Schizonepeta tenuifolia extract (HG, 200 mg/kg), and the positive control group administered with oxymetholone (50 mg/kg). Each group consisted of 6 mice. […]
Mouse was orally administered for 2 weeks with each test material, and then placed on the rod of a Rotarod apparatus and rotated at a speed of 20 rpm. The time until the mouse fell off the rod was then measured. […] The mean value of the three measurements for each animal was taken as the test result value, and the mean and standard deviation were calculated for each group of the six animals.

SMILES: OO [H2O2]
- cell viability [1]: statistically significant decrease in cell viability

SMILES: C[C@@H]1C[C@H]2[C@@H]3CCC4=CC(=O)C=C[C@]4(C)[C@@]3(F)[C@@H](O)C[C@]2(C)[C@@]1(O)C(=O)CO [dexamethasone]
- LDH level in blood serum [2]: elevated levels
- ALT level in blood serum ([2]; compared to normal group): statistically significant increase
- AST level in blood serum ([2]; compared to normal group): statistically significant increase

SMILES: C[C@]12C/C(=C/O)C(=O)C[C@@H]1CC[C@@H]1[C@@H]2CC[C@@]2(C)[C@H]1CC[C@]2(C)O [oxymetholone]
- hanging time on the Rotarod [3]: statistically significant increase in the time spent hanging on the Rotarod
